Results on 14 compounds are retold here after patent US20240409585A1, “MACROCYCLIC IMMUNOMODULATORS” (priority 2021, published 2024).

The structures appear in SMILES notation. Bridge positions count the residues as written; N and C are the ends. Square brackets hold non-standard residues; d marks the D form. Peptide text beside a SMILES is read from it. * marks the point of attachment. ξ: configuration not given here. Phe(4-COOH) = N[C@@H](Cc1ccc(C(=O)O)cc1)C(=O)O; Bip = N[C@@H](Cc1ccc(-c2ccccc2)cc1)C(=O)O; Phe(3-Me) = Cc1cccc(C[C@H](N)C(=O)O)c1; d(aThr) = C[C@@H](O)[C@@H](N)C(=O)O; Val(3-OH) = CC(C)(O)[C@H](N)C(=O)O; 4Pal = N[C@@H](Cc1ccncc1)C(=O)O; Cha = N[C@@H](CC1CCCCC1)C(=O)O; Cit = NC(=O)NCCC[C@H](N)C(=O)O; Ile(3ξ) = CCC(C)[C@H](N)C(=O)O; AllylGly = C=CC[C@H](N)C(=O)O; Thr(3ξ) = CC(O)[C@H](N)C(=O)O; Dap(Me) = CNC[C@H](N)C(=O)O; Carboxymethyl = O=C(O)C*; NMeA = CN[C@@H](C)C(=O)O; Dab = NCC[C@H](N)C(=O)O; Dap = NC[C@H](N)C(=O)O; ξC = NC(CS)C(=O)O

The assay concerns the target T1, PE-labeled human PD-L1-Ig binding to Jurkat cell line over-expressing human PD-1 (Jurkat-PD-1) (Homo sapiens, UniProt Q15116).
T1 construct: expressed in transfected cells; host or cells: Jurkat
The experiment in a line: Jurkat-PD-1 Cell Binding High-Content Screening Assay (CBA): Method 1. To be noted: Jurkat-hPD-1 cells, PE-labeled PD-L1-Ig 20 nM final; read-out: Jurkat HPDL1 PD1 IC50 (uM) (Method 1).

T1 sequence (Q15116 25-288): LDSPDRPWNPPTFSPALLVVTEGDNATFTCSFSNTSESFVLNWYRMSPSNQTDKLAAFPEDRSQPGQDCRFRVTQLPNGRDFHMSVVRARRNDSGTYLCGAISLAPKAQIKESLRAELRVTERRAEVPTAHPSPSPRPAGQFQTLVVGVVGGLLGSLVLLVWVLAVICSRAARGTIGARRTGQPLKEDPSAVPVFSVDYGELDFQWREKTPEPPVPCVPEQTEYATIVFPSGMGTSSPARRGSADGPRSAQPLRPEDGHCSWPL

As to `CC(C)C[C@@H]1NC(=O)[C@H](CCN)NC(=O)[C@@H](CC(C)C)NC(=O)[C@H](C)N(C)C(=O)[C@H](CCCNC(=N)N)NC(=O)[C@H](Cc2ccc(-c3ccccc3)cc2)NC(=O)[C@H](C(C)C)NC(=O)[C@H](Cc2c[nH]c3ccccc23)NC(=O)[C@H](CC(=O)O)NC(=O)[C@H](Cc2ccc(O)cc2)NC(=O)[C@H](Cc2ccccc2)NC(=O)CSC[C@@H](C(=O)N[C@@H](C)C(N)=O)NC(=O)[C@H]([C@@H](C)O)NC(=O)[C@H](C(C)C)NC1=O` [Compound 1052] ({CH2CO}-FYDWV[Bip]R[NMeA][dL][Dab]LVTCA-NH2; thioether N-14), the IC50 was found to be 0.04 µM.

`CC(C)C[C@@H]1NC(=O)[C@H](CCN)NC(=O)[C@@H](CC(C)C)NC(=O)[C@H](C)N(C)C(=O)[C@H](C(C)C)NC(=O)[C@H](Cc2ccc(-c3ccccc3)cc2)NC(=O)[C@H](C(C)C)NC(=O)[C@H](Cc2c[nH]c3ccccc23)NC(=O)[C@H](CC(=O)O)NC(=O)[C@H](Cc2ccc(O)cc2)NC(=O)[C@H](CCCNC(=N)N)NC(=O)CSC[C@@H](C(=O)N[C@@H](C)C(N)=O)NC(=O)[C@H]([C@@H](C)O)NC(=O)[C@H](C(C)C)NC1=O` [Compound 1394] ({CH2CO}-RYDWV[Bip]V[NMeA][dL][Dab]LVTCA-NH2; thioether N-14): the IC50 was 0.01 µM.

As for `CC(C)C[C@@H]1NC(=O)[C@H](Cc2c[nH]c3ccccc23)NC(=O)[C@H](CC(=O)O)NC(=O)[C@H](Cc2ccc(C(=O)O)cc2)NC(=O)[C@H](Cc2ccccc2)NC(=O)CSC[C@@H](C(=O)NCC(N)=O)NC(=O)[C@H](CO)NC(=O)[C@H](C(C)C)NC(=O)[C@H](CC(C)C)NC(=O)[C@H](CC(N)=O)NC(=O)[C@@H](CC(C)C)NC(=O)[C@H](C)N(C)C(=O)[C@H](C(C)C)NC(=O)[C@H](Cc2ccc(-c3ccccc3)cc2)NC1=O` [Compound 1528] ({CH2CO}-F[Phe(4-COOH)]DWL[Bip]V[NMeA][dL]NLVSCG-NH2; thioether N-14), the IC50 was found to be 0.01 µM.

As for `Cc1cccc(C[C@@H]2NC(=O)[C@H](CC(=O)O)NC(=O)[C@H](Cc3ccc(OCC(=O)O)cc3)NC(=O)[C@H](CN)NC(=O)CSC[C@@H](C(N)=O)NC(=O)[C@H](CO)NC(=O)[C@H](C(C)C)NC(=O)[C@H](CC(C)C)NC(=O)[C@H](CC(N)=O)NC(=O)[C@@H](CC(C)C)NC(=O)[C@H](C)N(C)C(=O)[C@H](CCCNC(N)=O)NC(=O)[C@H](Cc3ccc(-c4ccccc4)cc3)NC(=O)[C@H](CC(C)C)NC2=O)c1` [Compound 1644] ({CH2CO}-[Dap]Y(Carboxymethyl)D[Phe(3-Me)]L[Bip][Cit][NMeA][dL]NLVSC-NH2; thioether N-14), the IC50 is 0.06 µM.

In the case of `CC(=O)NCCCC[C@@H]1NC(=O)[C@H](C(C)C)NC(=O)[C@H](CC2CCCCC2)NC(=O)[C@H](CCN)NC(=O)[C@@H](CC(C)C)NC(=O)[C@H](C)N(C)C(=O)[C@H](Cc2cnc[nH]2)NC(=O)[C@H](Cc2ccc(-c3ccccc3)cc2)NC(=O)[C@H](C(C)C)NC(=O)[C@H](Cc2cccc(C)c2)NC(=O)[C@H](CC(=O)O)NC(=O)[C@H](Cc2ccc(OCC(=O)O)cc2)NC(=O)[C@H](Cc2ccc(OCC(=O)O)cc2)NC(=O)CSC[C@@H](C(N)=O)NC1=O` [Compound 2262] ({CH2CO}-Y(Carboxymethyl)Y(Carboxymethyl)D[Phe(3-Me)]V[Bip]H[NMeA][dL][Dab][Cha]VK(Ac)C-NH2; thioether N-14), the IC50 came out at 0.01 µM.

Turning to `CCC(C)[C@@H]1NC(=O)[C@H](Cc2ccc(-c3ccccc3)cc2)NC(=O)[C@H](CC(C)C)NC(=O)[C@H](Cc2c[nH]c3ccccc23)NC(=O)[C@H](CC(=O)O)NC(=O)[C@H](Cc2ccc(C(=O)O)cc2)NC(=O)[C@H](Cc2ccc(OCC(=O)O)cc2)NC(=O)CSC[C@@H](C(=O)N[C@@H](C)C(N)=O)NC(=O)[C@H](CO)NC(=O)[C@H](C(C)C)NC(=O)[C@H](CC2CCCCC2)NC(=O)[C@H](CNC)NC(=O)[C@@H](CC(C)C)NC(=O)[C@H](C)N(C)C1=O` (stereo partly drawn) [Compound 2068] ({CH2CO}-Y(Carboxymethyl)[Phe(4-COOH)]DWL[Bip][Ile(3ξ)][NMeA][dL][Dap(Me)][Cha]VSCA-NH2; thioether N-14), the IC50 stood at 0.03 µM.

Consider `Cc1cccc(C[C@@H]2NC(=O)[C@H](CC(=O)O)NC(=O)[C@H](Cc3ccc(O)cc3)NC(=O)[C@H](CC(N)=O)NC(=O)CSC[C@@H](C(=O)N[C@@H](CCN)C(N)=O)NC(=O)[C@H]([C@@H](C)O)NC(=O)[C@H](C(C)(C)O)NC(=O)[C@H](CC3CCCCC3)NC(=O)[C@H](CCN)NC(=O)[C@@H](CC(C)C)NC(=O)[C@H](C)N(C)C(=O)[C@H](CCCNC(N)=O)NC(=O)[C@H](Cc3ccc(-c4ccccc4)cc3)NC(=O)[C@H](C(C)(C)O)NC2=O)c1` [Compound 1705] ({CH2CO}-NYD[Phe(3-Me)][Val(3-OH)][Bip][Cit][NMeA][dL][Dab][Cha][Val(3-OH)]TC[Dab]-NH2; thioether N-14), for which the IC50 came out at 0.03 µM.

Consider `CC[C@H](C)[C@@H]1NC(=O)[C@H](Cc2ccc(-c3ccccc3)cc2)NC(=O)[C@H](CC(C)C)NC(=O)[C@H](Cc2c[nH]c3ccccc23)NC(=O)[C@H](CC(=O)O)NC(=O)[C@H](Cc2ccc(C(=O)O)cc2)NC(=O)[C@H](Cc2ccc(OCC(=O)O)cc2)NC(=O)CSC[C@@H](C(N)=O)NC(=O)[C@H](CO)NC(=O)[C@H](C(C)C)NC(=O)[C@H](CC2CCCCC2)NC(=O)[C@H](CCN)NC(=O)[C@@H](CC(C)C)NC(=O)[C@H](C)N(C)C1=O` [Compound 1635] ({CH2CO}-Y(Carboxymethyl)[Phe(4-COOH)]DWL[Bip]I[NMeA][dL][Dab][Cha]VSC-NH2; thioether N-14), for which the IC50 was determined as 0.01 µM.

Take `CC(C)C[C@@H]1NC(=O)[C@H](Cc2c[nH]c3ccccc23)NC(=O)[C@H](CC(=O)O)NC(=O)[C@H](Cc2ccc(O)cc2)NC(=O)[C@H](Cc2ccccc2)NC(=O)CSC[C@@H](C(=O)NCC(N)=O)NC(=O)[C@H](CO)NC(=O)[C@H](C(C)C)NC(=O)[C@H](CC(C)C)NC(=O)[C@H](CC(N)=O)NC(=O)[C@@H]([C@@H](C)O)NC(=O)[C@H](C)N(C)C(=O)[C@H](C(C)C)NC(=O)[C@H](Cc2ccc(-c3ccccc3)cc2)NC1=O` [Compound 1752] ({CH2CO}-FYDWL[Bip]V[NMeA][d(aThr)]NLVSCG-NH2; thioether N-14): the IC50 was determined as 0.03 µM.

In the case of `C=CC[C@@H]1NC(=O)[C@H](CC(C)C)NC(=O)[C@H](CC(N)=O)NC(=O)[C@@H](CC(C)C)NC(=O)[C@H](C)N(C)C(=O)[C@H](C(C)C)NC(=O)[C@H](Cc2ccc(-c3ccccc3)cc2)NC(=O)[C@H](CC=C)NC(=O)[C@H](Cc2cccc(C)c2)NC(=O)[C@H](CC(=O)O)NC(=O)[C@H](Cc2ccncc2)NC(=O)[C@H](Cc2ccc(OCC(=O)O)cc2)NC(=O)CSCC(C(=O)NCC(N)=O)NC(=O)[C@H](CO)NC1=O` (stereo partly drawn) [Compound 1882] ({CH2CO}-Y(Carboxymethyl)[4Pal]D[Phe(3-Me)][AllylGly][Bip]V[NMeA][dL]NL[AllylGly]S[ξC]G-NH2; thioether N-14), the IC50 was 0.03 µM.

As to `CC(C)C[C@@H]1NC(=O)[C@H](CCCNC(=N)N)NC(=O)[C@@H](CC(C)C)NC(=O)[C@H](C)N(C)C(=O)[C@H](CCCNC(=N)N)NC(=O)[C@H](Cc2ccc(-c3ccccc3)cc2)NC(=O)[C@H](C(C)C)NC(=O)[C@H](Cc2c[nH]c3ccccc23)NC(=O)[C@H](CC(=O)O)NC(=O)[C@H](Cc2ccc(OCC(=O)O)cc2)NC(=O)[C@H](Cc2ccccc2)NC(=O)CSC[C@@H](C(=O)N[C@@H](C)C(N)=O)NC(=O)[C@H]([C@@H](C)O)NC(=O)[C@H](C(C)C)NC1=O` [Compound 1094] ({CH2CO}-FY(Carboxymethyl)DWV[Bip]R[NMeA][dL]RLVTCA-NH2; thioether N-14), the IC50 was 0.77 µM.

For `CCC(C)[C@@H]1NC(=O)[C@H](Cc2ccc(-c3ccccc3)cc2)NC(=O)[C@H](C(C)C)NC(=O)[C@H](Cc2c[nH]c3ccccc23)NC(=O)[C@H](CC(=O)O)NC(=O)[C@H](Cc2ccc(O)cc2)NC(=O)[C@H](CC(N)=O)NC(=O)CSC[C@@H](C(=O)N[C@@H](C)C(N)=O)NC(=O)[C@H](C(C)O)NC(=O)[C@H](C(C)C)NC(=O)[C@H](CC(C)C)NC(=O)[C@H](CCN)NC(=O)[C@@H](CC(C)C)NC(=O)[C@H](C)N(C)C1=O` (stereo partly drawn) [Compound 2040] ({CH2CO}-NYDWV[Bip][Ile(3ξ)][NMeA][dL][Dab]LV[Thr(3ξ)]CA-NH2; thioether N-14), the IC50 is 0.05 µM.

Take `CCNC(=O)[C@H](CCN)NC(=O)[C@@H]1CSCC(=O)N[C@@H](Cc2ccncc2)C(=O)N[C@@H](Cc2ccc(OCC(=O)O)cc2)C(=O)N[C@@H](CC(=O)O)C(=O)N[C@@H](Cc2cccc(C)c2)C(=O)N[C@@H](Cc2ccc(OCC(=O)O)cc2)C(=O)N[C@@H](Cc2ccc(-c3ccccc3)cc2)C(=O)N[C@@H](Cc2ccc(OCC(=O)O)cc2)C(=O)N(C)[C@@H](C)C(=O)N[C@H](CC(C)C)C(=O)N[C@@H](CCN)C(=O)N[C@@H](CC2CCCCC2)C(=O)N[C@@H](C(C)C)C(=O)N[C@@H]([C@@H](C)O)C(=O)N1` [Compound 1858] ({CH2CO}-[4Pal]Y(Carboxymethyl)D[Phe(3-Me)]Y(Carboxymethyl)[Bip]Y(Carboxymethyl)[NMeA][dL][Dab][Cha]VTC[Dab]-NHEt; thioether N-14): the IC50 is 0.01 µM.

As to `CC(C)C[C@H]1NC(=O)[C@H](C)N(C)C(=O)[C@H](C(C)C)NC(=O)[C@H](Cc2ccc(-c3ccccc3)cc2)NC(=O)[C@H](C(C)C)NC(=O)[C@H](Cc2c[nH]c3ccccc23)NC(=O)[C@H](CC(=O)O)NC(=O)[C@H](Cc2ccc(O)cc2)NC(=O)[C@H](CN)NC(=O)CSC[C@@H](C(=O)N[C@@H](C)C(N)=O)NC(=O)[C@H]([C@@H](C)O)NC(=O)[C@H](C(C)C)NC(=O)[C@H](CC2CCCCC2)NC(=O)[C@H](CCN)NC1=O` [Compound 1506] ({CH2CO}-[Dap]YDWV[Bip]V[NMeA][dL][Dab][Cha]VTCA-NH2; thioether N-14), the IC50 is 0.02 µM.
